Here are results for 7 molecules from patent publication US10100032B2, “Crystalline forms of 3-(4-amino-1-oxo-1,3 dihydro-isoindol-2-yl)-piperidine-2,6-dione” (AMPLIO PHARMA, LLC, priority 2011, dated 2018).

Data set [1] can be described thus: Water slurry analysis of lenalidomide cocrystals. In kind it is physicochemical. The arrangement: key: If the cocrystal was intact, the cocrystal could be described as less soluble than the stable 3-(4-amino-1-oxo-1,3 dihydro-isoindol-2-yl)-piperidine-2,6-dione form in water (characterized as “stable”); the cocrystal transformation indicates that under those conditions the cocrystal is more soluble than the stable form of the 3-(4-amino-1-oxo-1,3 dihydro-isoindol-2-yl)-piperidine-2,6-dione in water (characterized as “transformed”). Particulars: slurry of ~8 to 10 mg of cocrystal in 1 mL of pure water, stirred for 24 hours, solid isolated by filtration and analyzed by XRPD. How it is done:
The solubility of the cocrystals obtained in Examples 1, 2, 3, 4, 5, 6, 7, and 8 were compared to the stable form of the API in pure water by creating a slurry of ˜8 to 10 mg of cocrystal in 1 mL of water. The resulting slurry was stirred for 24 hours. The solid was isolated by filtration and analyzed by XRPD.

Data set [2] can be described thus: Stability testing of lenalidomide cocrystals. The arrangement: key: the solids remained as the starting cocrystal material, indicating that they are stable under these conditions (“stable”); transformed partially or completely into a different crystalline material, indicating that they are not stable under these conditions (“not stable”). Particulars: stored at 40 degrees Celsius and 75% relative humidity (saturated NaCl) for 14 days, XRPD. It is filed as physicochemical.

With `Nc1cccc2c1CN(C1CCC(=O)NC1=O)C2=O` (centres unmarked) [oxallic acid cocrystal of lenalidomide, 3-(4-amino-1-oxo-1,3-dihydroisoindol-2-yl)piperidine-2,6-dione and oxalic acid cocrystal], in data set [1], the Water slurry result is “transformed”. In addition, the Stability test result in data set [2] is “stable”.
For `Nc1cccc2c1CN(C1CCC(=O)NC1=O)C2=O` (centres unmarked) [ammonium chloride cocrystal of lenalidomide] [3-(4-amino-1-oxo-1,3-dihydroisoindol-2-yl)piperidine-2,6-dione-ammonium chloride cocrystal], the Water slurry result in data set [1] is listed as “transformed”. Further, in data set [2], the Stability test result is “stable”.
Regarding `Nc1cccc2c1CN(C1CCC(=O)NC1=O)C2=O` (centres unmarked) [urea cocrystal of lenalidomide, 3-(4-amino-1-oxo-1,3-dihydroisoindo-2-yl)piperidine-2,6-dione-urea cocrystal], the Water slurry result in data set [1] is listed as “transformed”. In addition, the Stability test result in data set [2] is on record as “stable”.
The corresponding values for `Nc1cccc2c1CN(C1CCC(=O)NC1=O)C2=O` [L-tartaric acid cocrystal of lenalidomide] [3-(4-amino-1-oxo-1,3-dihydroisoindol-2-yl)piperidine-2,6-dione-L-tartaric acid cocrystal] are “transformed” and “not stable”.
On to `Nc1cccc2c1CN(C1CCC(=O)NC1=O)C2=O` (centres unmarked) [propyl gallate cocrystal of lenalidomide, 3-(4-amino-1-oxo-1,3-dihydroisoindol-2-yl)piperidine-2,6-dione-propylgallate cocrystal], for which the Water slurry result in data set [1] is given as “transformed”. For the same molecule, the Stability test result in data set [2] is “not stable”.
As to `Nc1cccc2c1CN(C1CCC(=O)NC1=O)C2=O` (centres unmarked) [gallic acid cocrystal of lenalidomide, 3-(4-amino-1-oxo-1,3-dihydroisoindol-2-yl)piperidine-2,6-dione-gallic acid cocrystal], in data set [1], the Water slurry result is “transformed”. For the same molecule, in data set [2], the Stability test result is on record as “stable”.
For `Nc1cccc2c1CN(C1CCC(=O)NC1=O)C2=O` (centres unmarked) [malonic acid cocrystal of lenalidomide, 3-(4-amino-1-oxo-1,3-dihydroisoindol-2-yl)piperidine-2,6-dione-malonic acid cocrystal], the Water slurry result in data set [1] is recorded as “transformed”. For the same molecule, in data set [2], the Stability test result was “not stable”.
